The values below come from ChEMBL document CHEMBL1145086, “Selectivity fields: comparative molecular field analysis (CoMFA) of the glycine/NMDA and AMPA receptors” (J Med Chem, 2003).

Structures are written as SMILES. Values joined by “and” are separate entries in the source; they are usually repeats but may differ in a detail not shown here. Equal entries are not always repeated.

Assay [1] has as its target Glutamate receptor ionotropic, AMPA (Rattus norvegicus, UniProt P19490+P19491+P19492+P19493). Briefly: Binding selectivity towards Ionotropic glutamate receptor AMPA was determined by using [3H]- AMPA. The format is protein-complex assay.
Assay [2] concerns the target Glutamate receptor ionotropic, NMDA 1 (Rattus norvegicus, UniProt P35439). Briefly: Binding selectivity towards N-methyl-D-aspartate glutamate receptor 1 was determined by using [3H]- glycine/NMDA.

The Ki is a dissociation constant, usually derived from enzyme kinetics or from competition with a known ligand. Read a high Ki as lower affinity. For `CCOC(=O)c1cc2n(n1)C(C(=O)O)Nc1cc(Cl)ccc1-2` (stereo not given), the values for the Ki in assay [1] and in assay [2] were 72 µM and 26.5 µM, respectively. Taken in the same sequence, the figures for `O=C(O)c1nc2c(=O)[nH]c3cc(Cl)c(-n4ccnc4)cc3n2n1` were 0.14 µM and 33.5 µM.

Turning to `CCOC(=O)c1cc2n(n1)C(C(=O)O)Nc1ccccc1-2` (stereo not given), the inhibition constant Ki in assay [1] amounted to 42 µM; in assay [2], 33.3 µM. Taken in the same sequence, the figures for `CCOC(=O)c1nc2c(=O)[nH]c3cc(Cl)c(-n4ccc[n+]4C=O)cc3n2n1` were 1.9 µM and 19 µM.

On to `Nc1cc2c(cc1Cl)nc(O)c1nc(C(=O)O)nn12`, for which the Ki in assay [2] is 3.6 µM. As for `O=C(O)c1cc2n(n1)C(C(=O)O)Nc1cc(Cl)c(Cl)cc1-2` (stereo not given), the inhibitory constant (Ki) in assay [1] was determined as 2.4 µM; in assay [2] it was 0.16 µM. Consider `O=C(O)c1cc2n(n1)C(C(=O)O)Nc1ccccc1-2` (stereo not given), for which the Ki was 12.4 µM in assay [1] and 1.41 µM in assay [2]. Taken in the same sequence, the figures for `O=C(O)c1cc2n(n1)C(C(=O)O)Nc1cc(Cl)c([N+](=O)[O-])cc1-2` (stereo not given) were 0.74 µM and 1.1 µM. On to `CCOC(=O)c1cc2n(n1)C(C(=O)O)Nc1cc(Cl)c([N+](=O)[O-])cc1-2` (stereo not given), for which the Ki in assay [1] is 8.2 µM; in assay [2], 10.6 µM.

With `O=C[n+]1cccn1-c1cc2c(cc1Cl)NC(C(=O)O)n1nc(C(=O)O)cc1-2` (stereo not given), the figures for the Ki in assay [1] and in assay [2] were 0.27 µM and 8.2 µM, respectively. Taken in the same sequence, the figures for `O=C(O)c1cc2n(n1)C(C(=O)O)Nc1cc(Cl)ccc1-2` (stereo not given) were 2.3 µM and 0.48 µM.

As for `CCOC(=O)c1nc2c(O)nc3cc(Cl)c(-n4cccn4)cc3n2n1`, the Ki in assay [1] is 18.4 µM; in assay [2], 23 µM. Consider `CCOC(=O)c1nc2c(=O)[nH]c3cc(Cl)c(N)cc3n2n1`, for which affinity in assay [2] was put at a Ki of 4.8 µM. `CCOC(=O)c1nc2c(O)nc3cc(Cl)c([N+](=O)[O-])cc3n2n1`: the inhibitory constant (Ki) in assay [2] turned out to be 10.2 µM. As for `CCOC(=O)c1cc2n(n1)C(C(=O)O)Nc1cc(Cl)c(-n3ccc[n+]3C=O)cc1-2` (stereo not given), the results for the Ki in assay [1] and in assay [2] were 1.4 µM and 57 µM, respectively. For `CCOC(=O)c1nc2c(O)nc3ccc(Cl)c(Cl)c3n2n1`, the inhibitory constant (Ki) in assay [1] was found to be 4.9 µM; in assay [2], 4.8 µM. For `O=C(O)c1nc2c(=O)[nH]c3cc(Cl)c(-n4cccn4)cc3n2n1`, the inhibition constant (Ki) in assay [1] was 0.86 µM; in assay [2], 0.86 µM and 5.3 µM. As to `O=C(O)c1cc2n(n1)C(C(=O)O)Nc1cc(Cl)c(-n3ccnc3)cc1-2` (stereo not given), the values for the Ki in assay [1] and in assay [2] were 0.14 µM and 8.3 µM, respectively.

For `O=C[n+]1cccn1-c1cc2c(cc1Cl)[nH]c(=O)c1nc(C(=O)O)nn12`, the inhibitory constant (Ki) in assay [1] was found to be 0.53 µM; in assay [2] it was 28 µM.
